From publication PMC6774872 (Cancer research, 2019) come the findings set out here.

Broadly, the IC50 is the concentration that gives 50% inhibition. Read a low IC50 as greater potency.

The test system of this experiment is lactate dehydrogenase A (LDHA); measured as cellular LDH activity. As to the kind of experiment: LDH activity. The class given is cell-based.

Regarding NCI-737, the IC50 was about 100 nM.
